Source: patent publication US20070042507A1, “Composite nanoparticles” (priority 2003, published 2007)
Values joined by “and” are separate entries in the source; they are usually repeats but may differ in a detail not shown here. Equal values may be shown once. Read-outs that look alike come from different tables or passages of the source.

Columns and labels:
[1] = cited from earlier work; for LogD value from literature: n-octanol/water; for logD, Literature Value: pH = 7.4, AstraZeneca in-house data
[2] = n-octanol/water logD with stock solution of n-octanol-charged nanoparticles (SC-CO2 delivery, example 10); conditions: pH 7.4
Description: 30 μL n-octanol was then added into the holder 6 by the use of a micro-pipettor. The autoclave vessel and the sample holder (30 ml in total volume) were charged and flushed with CO2 by opening and closing the valves between the two compartments and external outlets for a few times before the vessels were brought up to the desired pressure (150 bar). The temperature of the autoclave and sample holder was maintained at 40° C., to allow the dispersion of the small quantity of n-octanol into the porous particles. After 2 hours, the high pressure of the system was released to atmosphere very slowly.
An appropriate amount of n-octanol was added to provide a thin n-octanol layer covering the water phase (density of n-octanol is lower than water). The funnel was shaken for 5 to 10 minutes to allow mixing of the n-octanol with water. The funnel was then covered by aluminium foil to protect the solvent mixture from light degradation and evaporation. The funnel was placed in an upright position for 3 days to allow separation of the two phases. The n-octanol phase saturated with water was then collected.
The particles containing nanocomposite were dispersed into 5 mL of this saturated buffer solution to obtain a homogeneous stock-solution with a concentration of 0.0038 mL n-octanol per mL of solution. Partition coefficient measurements were carried out as described below, using such a stock solution prepared in the same way.
After shaking the mixed system for half an hour, the magnetic nanocomposites were precipitated in a few minutes by an external magnet placed near the bottom of the reactor-tube. UV-visible spectrophotometry was used to determine the absorption of analyte at the aqueous phase both before and after partitioning.
For the partition coefficient determination, stock solutions were prepared with a suitable n-octanol/nanoparticle ratio. […]
UV-visible spectrometry was used to quantitatively determine the drug concentration in aqueous phase before and after partitioning. […]

[3] = n-octanol/water logD by prior art shake-flask method
[4] = physchem
[5] = physchem; remark: listed apart in the source
[6] = n-octanol/water, pH 7.4, LogD value measured (Prior art method) (pH = 7.4), single measurements, water:n-octanol 100:1
[7] = n-octanol/water, pH 7.4, Mean logD value measured (Prior art method) (ph = 7.4), mean of five, water:n-octanol 100:1
[8] = n-octanol/water, pH 7.4, logD, Shake-Flask Method, water/n-octanol 100, average of at least five, confidence level 95%
[9] = single measurements, water:n-octanol 100:1
[10] = pH 7.4, LogD value measured by present invention (pH = 7.4), single measurements, water:n-octanol 100:1
[11] = pH 7.4, Mean logD value measured by present invention (pH = 7.4), mean of five, water:n-octanol 100:1
[12] = pH 7.4, logD, Magnetic nano-composite method, water/n-octanol 100, average of at least five, confidence level 95%
[13] = pH 7.4, LogD value measured (Prior art method) (pH = 7.4), single measurements, water:n-octanol 100:1
[14] = pH 7.4, Mean logD value measured (Prior art method) (ph = 7.4), mean of five, water:n-octanol 100:1

## c1ccc2ncccc2c1 [Quinoline]
[1]
  LogD value from literature: 2.020
  logD, Literature Value: 2.020
[2]
  logD: 2.08 ± 0.073
[3]; [6]
  logD: 2.12
[3]; [7]
  logD: 2.116 ± 0.0039
[3]; [8]
  logD: 2.116 ± 0.004
[3]; [9]
  LogD value measured (Prior art method) (pH = 7.4): 2.115 and 2.113 and 2.121 and 2.114
[10]
  logD: 2.19
[11]
  logD: 2.186 ± 0.0044
[12]
  logD: 2.186 ± 0.004

## O=[N+]([O-])c1ccc(O)cc1 [4-Nitrophenol]
[1]
  LogD value from literature: 1.480
  logD, Literature Value: 1.480
[2]
  logD: 1.45 ± 0.026
[3]; [13]
  logD: 1.77
[3]; [14]
  logD: 1.78 ± 0.019
[3]; pH 7.4, logD, Shake-Flask Method, water/n-octanol 100, average of at least five, confidence level 95%
  logD: 1.486 ± 0.009
[3]; [9]
  LogD value measured (Prior art method) (pH = 7.4): 1.779 and 1.811 and 1.780
[10]
  logD: 1.81
[11]
  logD: 1.807 ± 0.0052
[12]
  logD: 1.49 ± 0.021

## COc1ccc([N+](=O)[O-])cc1 [4-Nitroanisole]
[4]; pH 7.4, LogD value measured (Prior art method) (pH = 7.4)
  logD: 2.02
[4]; pH 7.4, logD, Shake-Flask Method
  logD: 2.01 ± 0.008
[5]; pH 7.4, LogD value measured by present invention (pH = 7.4)
  logD: 2.01
[5]; pH 7.4, logD, Magnetic nano-composite method
  logD: 2.013 ± 0.012
[3]; [6]
  logD: 2.01
[3]; [7]
  logD: 2.01 ± 0.0077
[10]
  logD: 2.01
[11]
  logD: 2.013 ± 0.012
Single measurements, water:n-octanol 100:1, listed as 4-Nitroansiole
  LogD value measured by present invention (pH = 7.4): 2.023 and 2.002

## NC(=O)c1ccccc1 [Benzamide]
[10]
  logD: 0.0639

## CN(C)CCCN1c2ccccc2Sc2ccc(Cl)cc21 [Chlorpromazine]
[1]
  LogD value from literature: 3.200
  logD, Literature Value: 3.200
[2]
  logD: 3.17 ± 0.448
[3]; [6]
  logD: 3.08
[3]; [7]
  logD: 3.076 ± 0.0047
[3]; [8]
  logD: 3.076 ± 0.005
[3]; [9]
  LogD value measured (Prior art method) (pH = 7.4): 3.074 and 3.083
[10]
  logD: 3.14
[11]
  logD: 3.164 ± 0.0111
[12]
  logD: 3.164 ± 0.011
[9]
  LogD value measured by present invention (pH = 7.4): 3.179 and 3.186 and 3.124

## O=[N+]([O-])c1ccc(CO)cc1 [4-Nitrobenzyl alcohol]
[1]
  LogD value from literature: 1.260
  logD, Literature Value: 1.260
[3]; [6]
  logD: 1.25
[3]; [9]
  LogD value measured (Prior art method) (pH = 7.4): 1.264 and 1.244 and 1.256
[10]
  logD: 1.27
[11]
  logD: 1.27 ± 0.0381
[12]
  logD: 1.27 ± 0.038

## Nc1ccccc1 [Aniline]
[1]
  LogD value from literature: 0.900
[3]; [13]
  logD: 0.936
[3]; [14]
  logD: 0.934 ± 0.0094
[3]; [9]
  LogD value measured (Prior art method) (pH = 7.4): 0.945 and 0.929 and 0.926 and 0.932
[10]
  logD: 0.963
[11]
  logD: 0.973 ± 0.0303
[9]
  LogD value measured by present invention (pH = 7.4): 0.990 and 0.935 and 0.989
